Results taken from patent publication US7977474B2, “Uses of porphyrin compounds” (Destiny Pharma Ltd., priority 2004, dated 2011).
Read-outs that look alike come from different tables or passages of the source.

Columns and labels:
[1] = system: Staphylococcus aureus BAA-44, a multi-drug resistant Methicillin Resistant Staphylococcus aureus (MRSA) strain; assay: MIC and MBC of Compound 10 in the absence of light (Example B); type: cell-based
From the text: The minimum inhibitory concentration (MIC) for an antimicrobial agent against a specific microorganism is defined as the minimum concentration of an antibacterial agent where no apparent visible growth of the organism is observed (FDA definition of Minimum Inhibitory Concentration). MIC's are typically determined using concentrations derived traditionally from serial twofold dilutions (National Committee for Clinical Laboratory Standards (NCCLS) Handbook M7-A5: “Methods for Dilution Antimicrobial Susceptibility Tests for Bacteria that Grow Aerobically; Approved Standard—5th Edition” Volume 20 Number 2. January 2000). The MIC for Compound 10 in the absence of light was investigated, using a protocol based on the MIC protocol produced by the NCCLS (National Committee for Clinical Laboratory Standards (NCCLS) Handbook M7-A5, supra).
Staphylococcus aureus BAA-44, a multi-drug resistant Methicillin Resistant Staphylococcus aureus (MRSA) strain obtained from the ATCC catalogue, was used in this study. The following concentrations of Compound 10 were investigated: 0.764; 0.382: 0.191; 0.0955; 0.0478; 0.0239, 0.0119, 0.00597, 0.00298, 0.00149, 0.00075 & 0.00037 μg/mL. Stock solutions were made up in distilled water and serial dilutions undertaken of this to produce the required concentrations immediately prior to use.
At least 3 to 5 well-isolated colonies of the same morphological type were selected from an agar plate culture and the growth transferred to a tube containing 100 mL of Isosensitest Broth and the broth culture is incubated at 37° C. overnight. The culture was then be diluted to a final density of 10^4 cells/mL with fresh Isosensitest Broth and incubated with shaking at 37° C. until the cells entered exponential growth.
0.09 mL of the adjusted inoculum was transferred into each of 24 wells of a polystyrene 96 well microtiter plate. A control well of bacteria alone in the presence of growth medium alone was included (as a positive control).
0.09 mL of the Compound 10 stock solutions from the dilution series were pipetted into the relevant well for the microtiter plates and incubated in the dark at 37° C. and the plates examined after 24 hours incubation to determine the turbidity in each well.

[2] = system: Staphylococcus aureus (methicillin resistant); assay: MIC (IsoSensitest broth) and MBC (subculture on blood agar), reference strains and clinical isolates (Example C); type: cell-based
Method: (§1) The Minimum Inhibitory Concentrations (MIC's) for Compound 10, over a range of reference strains and clinical isolates, were determined using IsoSensitest® broth and Minimum Bactericidal concentrations (MBC's) determined by subculture onto Columbia blood agar.
(§2) • 1. A 5 mg/ml stock solution of Compound 10 was made up in water • 2. A series of dilutions were undertaken to produce a range of concentrations between 32-0.001 mg/L • 3. The test microorganisms were grown up overnight in IsoSensitest® broth • 4. The cultures were then diluted with fresh broth to a final concentration of 10^4 organisms/ml and placed on a shaker for 90 minutes at 37° C. • 5. 90 μl of the broth culture containing the microorganisms were transferred to each of 12 wells in a row in a microtitre tray and repeated in a control tray—four organisms per tray. • 6. 90 μL of the appropriate Compound 10 dilution was then added to each well containing organisms to give a final dilution series from 16 mg/L to 0.0005 mg/L • 7. The solutions were mixed well and incubated in the dark for 24 hours • 8. […] The MBC values were recorded after overnight incubation of the subcultures. • 10. Controls of uninoculated broth and broth plus inoculum were undertaken for each organism in each tray Results

Enterococcus faecalis = assay: MIC and MBC, reference strains and clinical isolates (Example C); type: cell-based
Method: as §1, §2

Enterococcus faecium = assay: as above; type: cell-based
Method: as §1, §2

[3] = system: Staphylococcus aureus (methicillin sensitive); assay: as above; type: cell-based
Method: as §1, §2

[4] = system: Staphylococcus epidermidis (methicillin resistant); assay: as above; type: cell-based; details: for MIC: Staphylococcus epidermidis, dark 24 hours
Method: as §1, §2

[5] = system: Staphylococcus epidermidis (methicillin sensitive); assay: as above; type: cell-based; details: 37453, clinical isolate
Method: as §1, §2

[6] = system: normal human epidermal keratinocytes (NHEK); assay: Toxicity against human skin cells, MTT-assay (Example D); type: cell-based; details: 0.01-10 μM, 5 min, 1 h and 4 h incubation, then 24 h in the dark
Method: NHEK were incubated with different concentrations of Compound 10 for 5 min, 1 h and 4 h (0 μM, 0.01 μM, 0.1 μM, 1.0 μM, 10 μM). Cells were then incubated for 24 h in the dark. Toxicity was tested by standard MTT-assay. Cell viability was normalised to one, which means, the values of control cells were normalised to one. Red dotted line: 5 min incubation; black dotted: 1 h incubation; blue dotted: 4 h incubation only; (n=3, mean±SD).
(§3) Test compounds were screened for toxicity against cultured human skin cells using normal human epidermal keratinoctes (NHEK) and normal human dermal fibroblasts (NHDF), purchased from CellSystems Biotechnologie GmbH, Germany.
(§4) The NHEK and NHDF cells were used between passages 3 and 10. The cells were seeded with 7.5 and/or 15×10^4 cells/well (microtitre plate) and were allowed to attach overnight in an incubator (37° C., 5% CO2). After incubation with different concentrations of the selected photosensitisers for various times, the cells were incubated for 24 hours in the dark.
(§5) Toxicity was tested by standard MTT-assay (Mossman et al., 1983 J. Immunological Methods 65: 55-63). MTT is an indicator of metabolically active cells. Dependent on enzyme activity in mitochondria a colour reaction can be visualised, which can be measured by ELISA reader (540 nm). […]

[7] = system: normal human dermal fibroblasts (NHDF); assay: as above; type: cell-based; details: 0.01-10 μM, 5 min, 1 h and 4 h incubation, then 24 h in the dark
Method: NHDF were incubated with different concentrations of Compound 10 for 5 min, 1 h and 4 h (0 μM, 0.01 μM, 0.1 μM, 1.0 μM, 10 μM). Cells were then incubated for 24 h in the dark. Toxicity was tested by standard MTT-assay. Cell viability was normalised to one, which means, the values of control cells were normalised to one. Grey dotted line: 5 min incubation; black dotted: 1 h incubation; black line: 4 h incubation; (n=3, mean±SD).
as §3, §4, §5

[8] = Acute dermal toxicity test (OECD 402) (Example G); type: in vivo; details: 3.2 mM in a topical formulation
Method: Compound 10 was tested at 3.2 mM in a topical formulation in a standard acute dermal toxicity test to determine if any clinical or histological toxicity for the compound could be detected.
The acute toxicity protocol was based on OECD Guidelines for the testing of chemicals/Section 4—Health Effects Test Number 402: Acute Dermal Toxicity.

Escherichia coli = details: visible light after incubation; Valduga et al., 1999; cited from earlier work

Structure (SMILES): C[N+](C)(C)CCCOc1ccc(-c2c3nc(cc4ccc([nH]4)c(-c4ccc(OCCC[N+](C)(C)C)cc4)c4nc(cc5ccc2[nH]5)C=C4)C=C3)cc1 [Compound 10, 5,15-bis-[4-(3-Trimethylammonio-propyloxy)-phenyl]-porphyrin dichloride]
- MIC ([1]; Series 2, dark): 0.0955 µg/mL
- MIC ([1]; Staphylococcus aureus, Series 1, dark, read-out: MIC): 0.0955 µg/mL
- MBC ([1]; Staphylococcus aureus, absence of light): 0.382 µg/mL
- MIC ([1]; Staphylococcus aureus, absence of light, 24 hours incubation at 37° C., read-out: MIC): 0.0955 µg/mL
- MIC ([2]; 24 h, EMRSA-16, clinical isolate, dark 24 hours): 0.5 µg/mL
- MIC ([2]; ATCCBAA44, 24 h, ATCC BAA-44 Experiment 1, dark 24 hours): 0.5 µg/mL
- MIC ([2]; ATCCBAA44, 24 h, ATCC BAA-44 Experiment 2, dark 24 hours): 0.5 µg/mL
- MIC ([2]; ATCCBAA44, 24 h, ATCC BAA-44 Experiment 3, dark 24 hours): 2 µg/mL
- MIC ([2]; ATCCBAA44, 24 h, ATCC BAA-44 Experiment 4, dark 24 hours): 0.5 µg/mL
- MIC ([2]; ATCCBAA44, 24 h, ATCC BAA-44 Experiment 5, dark 24 hours): 0.5 µg/mL
- MIC ([2]; ATCCBAA44, 24 h, ATCC BAA-44 Experiment 6, dark 24 hours): 0.5 µg/mL
- MBC ([2]; ATCCBAA44, ATCC BAA-44 Experiment 1): 0.5 µg/mL
- MBC ([2]; ATCCBAA44, ATCC BAA-44 Experiment 2): 1 µg/mL
- MBC ([2]; ATCCBAA44, ATCC BAA-44 Experiment 3): 2 µg/mL
- MBC ([2]; ATCCBAA44, ATCC BAA-44 Experiment 4): 1 µg/mL
- MBC ([2]; ATCCBAA44, ATCC BAA-44 Experiment 5): > 1 µg/mL
- MBC ([2]; ATCCBAA44, ATCC BAA-44 Experiment 6): 1 µg/mL
- MBC ([2]; EMRSA-15, clinical isolate): 1 µg/mL
- MBC ([2]; EMRSA-16, clinical isolate): 0.5 µg/mL
- MIC ([2]; NCTC11939, 24 h, NCTC 11939 (EMRSA-1), dark 24 hours): 0.5 µg/mL
- MBC ([2]; NCTC11939, NCTC 11939 (EMRSA-1)): 0.5 µg/mL
- MBC (Enterococcus faecalis; ATCC29212, ATCC 29212): > 1 µg/mL
- MBC (Enterococcus faecalis; E3, clinical isolate): 1 µg/mL
- MIC (Enterococcus faecalis; E3, clinical isolate, dark 24 hours): 0.5 µg/mL
- MBC (Enterococcus faecalis; E4, clinical isolate): 0.5 µg/mL
- MBC (Enterococcus faecalis; E10, clinical isolate): 1 µg/mL
- MBC (Enterococcus faecalis; E37, clinical isolate): 1 µg/mL
- MBC (Enterococcus faecium; E1, clinical isolate): 1 µg/mL
- MIC (Enterococcus faecium; E1, clinical isolate, dark 24 hours): 0.5 µg/mL
- MBC (Enterococcus faecium; E5, clinical isolate): 1 µg/mL
- MBC (Enterococcus faecium; E19, clinical isolate): 0.5 µg/mL
- MBC (Enterococcus faecium; E44, clinical isolate): 0.5 µg/mL
- MBC (Enterococcus faecium; NCTC12204, NCTC 12204): 1 µg/mL
- MBC ([3]; ATCC25923, ATCC 25923): 1 µg/mL
- MIC ([3]; ATCC25923, ATCC 25923, dark 24 hours): 0.5 µg/mL
- MBC ([3]; NCTC6571, NCTC 6571): 0.5 µg/mL
- MIC ([3]; NCTC6571, NCTC 6571, dark 24 hours): 0.5 µg/mL
- MBC ([4]; Staphylococcus epidermidis, 33659, clinical isolate): 1 µg/mL
- MBC ([4]; Staphylococcus epidermidis, 33759, clinical isolate): 1 µg/mL
- MBC ([4]; Staphylococcus epidermidis, 36572, clinical isolate): 0.25 µg/mL
- MBC ([4]; Staphylococcus epidermidis, 38808, clinical isolate): 0.5 µg/mL
- MIC ([4]; 24 h, 33659, clinical isolate): 0.5 µg/mL
- MIC ([4]; 24 h, 33759, clinical isolate): 0.5 µg/mL
- MIC ([4]; 24 h, 36572, clinical isolate): 0.25 µg/mL
- MIC ([4]; 24 h, 38808, clinical isolate): 0.5 µg/mL
- MBC [5]: 0.5 µg/mL
- MIC ([5]; dark 24 hours): 0.5 µg/mL
- innate toxicity (MTT cell viability) [6]: does not demonstrate an innate toxicity
- innate toxicity (MTT cell viability) [7]: does not demonstrate an innate toxicity
- histological toxicology of major organs [8]: No histological toxicology of any major organ (including the skin) was observed
- acute toxic effect ([8]; dermal): does not result in any acute toxic effect
- clinical toxicology ([8]; clinical, macroscopic and microscopic observation): no clinical toxicology was observed

Structure (SMILES): C[n+]1ccc(-c2c3nc(c(-c4cc[n+](C)cc4)c4ccc([nH]4)c(-c4cc[n+](C)cc4)c4nc(c(-c5cc[n+](C)cc5)c5ccc2[nH]5)C=C4)C=C3)cc1 [Compound T4MPyP, 5,10,15,20-tetrakis-(4-N-methylpyridyl)-porphine]
- inactivation of Escherichia coli (Escherichia coli): efficiently inactivated
